Source: ChEMBL document CHEMBL3881531, “ANT2 inhibitor compounds and methods of use thereof” (2009)

Columns and labels:
[1] = Cytotoxicity against mouse NIH/3T3 cells assessed as cell survival at 50 uM incubated for 5 days by crystal violet staining based assay; set-up: species or system NIH3T3; conditions: read-out: Survival
[2] = biological target: T1, ADP/ATP translocase 2 (Homo sapiens) (UniProt P05141); test: Inhibition of ANT2 in human HeLa cells assessed as growth inhibition at 50 uM incubated for 5 days by crystal violet staining based assay; format: cell-based
T1 sequence (whole entry): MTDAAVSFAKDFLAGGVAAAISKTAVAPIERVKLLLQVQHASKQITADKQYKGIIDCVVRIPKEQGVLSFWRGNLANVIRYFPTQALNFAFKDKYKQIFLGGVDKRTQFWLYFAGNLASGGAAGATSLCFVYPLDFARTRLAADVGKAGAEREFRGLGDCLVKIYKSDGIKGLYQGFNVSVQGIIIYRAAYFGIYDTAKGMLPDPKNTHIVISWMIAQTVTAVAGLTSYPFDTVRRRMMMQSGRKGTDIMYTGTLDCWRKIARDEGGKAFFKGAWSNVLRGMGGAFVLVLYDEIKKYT

[3] = biological target: T1, ADP/ATP translocase 2 (Homo sapiens); test: Inhibition of ANT2 in human HeLa cells assessed as cell survival at 50 uM incubated for 5 days by crystal violet staining based assay

| SMILES | viability at 120 h, 50 µM [1] [%] | growth inhibition (GI) [2] [%] | Survival [3] [%] |
| --- | --- | --- | --- |
| CC(C)CC(=O)C1C(=O)c2ccccc2C1=O | 40 | 79 | 5 |
| O=C(CC(=O)C1C(=O)c2ccccc2C1=O)c1ccccc1 |  | 84 |  |
